Test results published in paper PMC3744530, “CTA095, a Novel Etk and Src Dual Inhibitor, Induces Apoptosis in Prostate Cancer Cells and Overcomes Resistance to Src Inhibitors” (PLoS ONE, 2013).

Assays:
PC3-AZD20 cells = experiment: MTT cell viability in Src inhibitor resistant cells; assay type: cell-based, human; details: 72 h
Method: PC3 and PC3-AZD20 (PC3 cell resistant to 20 μM AZD0530, which is from AstraZeneca through MTA with Dr. Chris Evans) cells were seeded at 2000 cells/well in 96 well plates overnight. The cells were treated with AZD0530 or CTA095 at the indicated concentrations. Cell viability was measured using an MTT assay after 72 h.
Figure 11 CTA095 overcomes Src inhibitor resistance in prostate cancer cells. PC3 and PC3-AZD20 (PC3 cell resistant to 20 μM AZD0530) cells were seeded at 2000 cells/well in 96 well plates overnight. The cells were treated with AZD0530 or CTA095 at the indicated concentrations. Cell viability was measured using MTT assay after 72 h. Symbols, mean; bars, standard deviation, n = 3.

[1] = tested on: pEtk, pSrc, pSTAT3, Myc and BCL2 in PC3-AZD20 cells; experiment: Western blot of pEtk, pSrc, pStat3, Myc and BCL2; assay type: cell-based, human; details: PC3-AZD20, 10 μM
Method: PC3-AZD20 cells were seeded at 10^6 cells/well in 6 well plates overnight. The cells were treated with AZD0530 or CTA095 at 10 μM. Apoptosis was analyzed using Annexin-V FITC apoptosis detection kit. The mRNA levels of Myc and BCL2 were measured using real-time PCR. pEtk, Etk, pSrc, Src, pStat3, Stat3, Myc and BCL2 levels were measured using the corresponding antibodies through a Western blot.
Figure 12 CTA095 induces apoptosis in Src inhibitor resistant prostate cancer cells through Myc and BCL2 inhibition. PC3-AZD20 (PC3 cell resistant to 20 μM AZD0530) cells were seeded at 10^6 cells/well in 6 well plates overnight. The cells were treated with AZD0530 or CTA095 at 10 μM. Apoptosis was analyzed using Annexin-V FITC apoptosis detection kit (A). The mRNA levels of Myc and BCL2 were measured using real-time PCR (B). pEtk, Etk, pSrc, Src, pStat3, Stat3, Myc and BCL2 levels were measured using the corresponding antibodies through Western blot (C). Columns, mean; bars, standard deviation, n = 3.

[2] = tested on: PC3 cells stably transfected with GFP-LC3; design: method as in PMID 20811583; details: cited from earlier work

For CN1CCN(CCOc2cc(OC3CCOCC3)c3c(Nc4c(Cl)ccc5c4OCO5)ncnc3c2)CC1 [AZD0530, reference compound], the “cell viability / sensitivity of PC3-AZD20 cells” value (PC3-AZD20 cells) is listed as “resistant”, the “pEtk, pSrc, pSTAT3, Myc and BCL2 protein levels” value [1] is listed as “pSrc and pSTAT3, but not c-myc and Bcl-2 were decreased” and the “autophagy in prostate cancer cells” value [2] is listed as “induces autophagy”.
